{"source": "patent US8163805B2", "about": "“Small molecule antagonists of Bcl-2 family proteins” (The Regents of the University of Michigan, priority 2001, dated 2012)", "key": {"[1]": {"test_system": "human breast cancer xenograft MDA-MB-231", "settings": "for inhibition of tumor growth: three weeks, day 29", "quoted_text": "The potential of gossypol compounds as anticancer therapeutics was further evaluated in MDA-231 xenograft mice. […] A control group of five mice received no gossypol. In the treated mice, gossypol was administered daily in two different oral doses, a 30 and a 90 mg/kg dose, for three weeks.\nA group of 10 mice received an orally administered daily dose of 30 mg/kg gossypol starting at day 7 and lasting for 4 weeks. […] Each experimental group had 10 animals.\nAs a positive control, TAXOTERE was used at a dose of 7.5 mg/kg. Control group mice received either no treatment or vehicle alone. To achieve statistic significance, a minimum of 10 mice per group was used in the combination regimes.\nFor all tests, mice were randomized and then injected in the fat pad with 1-5×10^6 cells prepared in serum-free medium. The animals were measured and weighed twice each week during the treatment period, followed by twice a week measurements for an additional 4-6 weeks. A gross visual necropsy of each animal was performed at death or terminal sacrifice."}, "MDA-MB-231 cells": {"test_system": "MDA-MB-231 cells", "experiment": "5 day MTT cell growth assay, MDA-MB-231", "type": "cell-based, human", "settings": "Homo sapiens, MDA-MB-231, 120 h, read-out: IC50, inhibition of MDA-MB-231 cell growth", "quoted_text": "For example, the ability of gossypol compounds to inhibit MDA-MB-231 cell growth was tested in a 5 day MTT assay.\nCells were seeded in 24 or 96-well-plates and gossypol compounds were prepared at 2-10 fold dilutions in suitable medium. Inhibition of cell viability was determined by treating the cells with the gossypol compounds for 24 hrs. […] Inhibition of cell growth was determined by treating cells with gossypol compounds for 3-6 days. […] In some embodiments, MTT assays are used to determine cell inhibition.\nAbsorbance at 540 nm is used to measure the amount of formazan product."}, "[2]": {"test_system": "androgen-independent prostate PC-3 xenograft", "experiment": "PC-3 xenograft, (−)-gossypol and radiation (Example 20)", "type": "in vivo, nude mice", "settings": "Table 15; mice treated with gossypol and/or radiation", "method": "In this experiment, 60 male 5 to 6 week old NCI athymic NCr-nu/nu nude mice were inoculated in each flank with an injection of about 5×10^6 PC-3 cells. The best 40 xenograft recipients were used. Tumors averaged about 70 mm^3. (−)-Gossypol compounds were first dissolved in ethanol and diluted with sterile water within 5 min to a final ethanol concentration of 10% prior to each administration. Irradiated test animals were restrained, placed under the X-ray head, and covered with lead shields to ensure that the tumor area was exposed to radiation. All oral administrations of (−)-gossypol and 10% alcohol were given by gavage.\nThe 40 best xenograft mice were divided into experimental groups as follows: radiation only (Groups 1 and 2), 2 Gy administered 5 times/week for 3 weeks, and daily oral administration of 10% alcohol (as vehicle control); radiation plus gossypol (Groups 3 and 4), 2 Gy administered 5 times a week for 3 weeks, and 10 mg/kg of (−)-gossypol administered orally 5 times/week for 4 weeks (8 mice each Group); gossypol only (Groups 5 and 6), 10 mg/kg (−)-gossypol administered orally every day for 4 weeks (8 mice each Group); vehicle control (Groups 7 and 8), daily oral administration of 10% alcohol (8 mice each Group as vehicle control); large tumor animals (combination of Groups 9-12), tumors allowed to reach 500 mm^3.\nOther remaining tumors in this group appear pale yellowish and soft as compared with that in control group with hard solid and reddish appearance, indicating tumor blood supply was inhibited."}, "PC-3 xenograft": {"test_system": "PC-3 xenograft", "settings": "Table 14; mice treated with gossypol and/or radiation"}, "[3]": {"test_system": "MDA-MB-231 breast cancer cells", "experiment": "Annexin-V flow cytometry apoptosis, MDA-MB-231", "type": "cell-based, human", "settings": "24 hours", "method": "Further tests using Annexin-V flow cytometry (FACS) assays were conducted to more quantitatively assess the ability of gossypol to induce apoptosis in MDA-MB-231 breast cancer cells. […] It was observed that 5.0 μM of gossypol induced 59% of the MDA-MB-231 cells to undergo apoptosis. While the present invention is not limited to a particular mechanism(s), it is contemplated that induction of apoptosis by gossypol is dose-dependent. At administrations of 10.0 and 20.0 μM, respectively, gossypol induced 74% and 96% of cancer cells, again respectively, to undergo apoptosis. MDA-MB-231 cells overexpress Bcl-2 and Bcl-XL.\nIn still further embodiments, the present invention used cell level detection of apoptotic events by flow cytometry. Cells that had undergone apoptotic events were detected by flow cytometry using a FACSCAN instrument (Becton Dickinson, Franklin Lakes, N.J.) with 488-nm laser line and analyzed using CELL QUEST software (Becton Dickinson, Franklin Lakes, N.J.). Phosphatidylserine exposed on the outside of the cells (one of the major characteristics of apoptosis) was determined by TACSTM Annexin V-FITC Kit (Trevigen, Gaithersburg, Md.). Annexin V-FITC fluorescence is detected in FL-1, and propidium iodide was detected in FL-2. (Hail Jr., and R. Lotan, R. Cancer Epidemiol. Biomarkers Prev., 9:1293-1301 (2000)).\nApoptosis was further detected and quantified using Annexin-V-fluorescence assays. […] Cells were collected and washed with PBS and stained with Annexin-V-Fluorescein and propidium iodide (PI) following standard protocols. Stained cells were analyzed with a flow cytometer (Becton Dickinson) using 488 nm excitation and a 515 nm bandpass filter for fluorenscein detection, and a >600 nm filter for PI detection."}, "[4]": {"test_system": "androgen independent prostate cancer PC-3 xenograft", "experiment": "PC-3 xenograft, (−)-gossypol alone and with docetaxel (Example 22)", "settings": "for weight loss: mice treated with gossypol"}, "[5]": {"test_system": "human breast cancer MDA-MB-231 (2LMP) xenograft"}, "[6]": {"test_system": "A549 non-small cell lung carcinoma xenograft", "experiment": "A549 non-small cell lung carcinoma xenograft, (−)-gossypol with paclitaxel", "settings": "Table 13; mice treated with gossypol and/or Paclitaxel"}, "Bcl-XL [7]": {"biological_target": "T1, Bcl-XL (Homo sapiens, UniProt Q07817, DEL45-84)", "T1 construct": "His-tag (N); made in house", "T1 sequence (Q07817 with tags, fused parts or gaps DEL45-84 limits assumed)": "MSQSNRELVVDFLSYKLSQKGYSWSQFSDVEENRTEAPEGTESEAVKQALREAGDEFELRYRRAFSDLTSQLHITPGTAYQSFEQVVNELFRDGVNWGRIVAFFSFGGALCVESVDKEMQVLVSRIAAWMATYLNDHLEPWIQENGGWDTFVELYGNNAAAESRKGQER", "experiment": "FP binding assay, Flu-Bak-BH3 16-mer tracer and His-fused Bcl-XL", "settings": "FIG. 3, 6A, 6B"}, "Bcl-2": {"biological_target": "T2, Bcl-2 (Homo sapiens, UniProt P10415)", "T2 construct": "purchased Santa Cruz Biotechnology", "T2 sequence (P10415 1-205 limits assumed)": "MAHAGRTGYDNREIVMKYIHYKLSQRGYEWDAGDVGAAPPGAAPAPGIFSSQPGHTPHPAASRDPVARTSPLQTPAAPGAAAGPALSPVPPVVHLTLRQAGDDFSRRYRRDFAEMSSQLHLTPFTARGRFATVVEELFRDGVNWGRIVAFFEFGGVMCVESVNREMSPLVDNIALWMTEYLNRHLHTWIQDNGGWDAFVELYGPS", "experiment": "FP binding assay, Flu-Bad-25 peptide and GST-fusion Bcl-2 (FIG. 4, 45)"}, "[8]": {"test_system": "MCF-7 breast cancer cell line", "experiment": "Growth inhibition with TAXOL in fixed ratio, MCF-7", "type": "cell-based, human", "settings": "combinations in a fixed ratio to TAXOL"}, "Bcl-XL [9]": {"biological_target": "T1, Bcl-XL", "experiment": "15N HSQC NMR binding to Bcl-XL"}, "Bcl-XL [10]": {"biological_target": "T1, Bcl-XL", "experiment": "FP binding assay, Flu-Bid 21-residue peptide and Bcl-XL (FIG. 5, 46)"}, "[11]": {"experiment": "Elimination half-life in humans", "type": "in vivo", "text": "In some embodiments, the present invention contemplates that the longer residency of the (+)-gossypol enantiomer is potentially beneficial in certain prolonged gossypol treatments methods. Therefore, in some embodiments, the (+)-gossypol enantiomer is potentially more toxic to cells. […]"}, "[12]": {"settings": "Table 8, docetaxel 7.5 mg/kg i.v. q week for 3 weeks, alone"}}, "note": "Where two headings read alike, the source gives them in different places.", "data": [{"smiles": "Cc1cc2c(C(C)C)c(O)c(O)c(C=O)c2c(O)c1-c1c(C)cc2c(C(C)C)c(O)c(O)c(C=O)c2c1O", "note": "(racemic) [gossypol]", "values": [{"measurement": "inhibition of tumor growth", "setting": "[1]; 30 mg/kg oral daily", "value": "more than 70%"}, {"measurement": "inhibition of tumor growth", "setting": "[1]; 90 mg/kg oral daily", "value": "more than 70%"}, {"measurement": "weight loss or deaths", "setting": "[1]; 30 and 90 mg/kg oral daily", "value": "No weight loss or deaths"}, {"measurement": "IC50", "setting": "MDA-MB-231 cells", "value": 2, "unit": "µM"}, {"measurement": "weight loss", "setting": "[2]", "value": "There was no significant weight loss"}, {"measurement": "weight loss", "setting": "PC-3 xenograft", "value": "There was no significant weight loss"}, {"measurement": "cells induced to undergo apoptosis", "setting": "[3]; 5.0 μM", "value": 59, "unit": "%"}, {"measurement": "cells induced to undergo apoptosis", "setting": "[3]; 10.0 μM", "value": 74, "unit": "%"}, {"measurement": "cells induced to undergo apoptosis", "setting": "[3]; 20.0 μM", "value": 96, "unit": "%"}, {"measurement": "tumor growth inhibition on day 42", "setting": "[4]; Table 9, PC-3 flank xenografts (~100 mm^3 at start), NCr-nu nude mouse, 15 mg/kg daily p.o., alone", "value": "(15.6% on day 42). The (−)-gossypol"}, {"measurement": "weight loss", "setting": "[4]; Table 9", "value": "There was no weight loss in mice"}, {"measurement": "tumor growth inhibition on day 56 compared to vehicle controls", "setting": "[4]; Table 10, PC-3 flank xenografts (~120 mm^3 at start), NCr-nu nude mouse, daily p.o. for 28 days, alone (racemic 15 mg/kg)", "value": "(39% on day 56, p = 0.145) compared"}, {"measurement": "weight loss", "setting": "[4]; Table 10", "value": "There was no weight loss in mice"}, {"measurement": "weight loss or death", "setting": "[5]; Table 8, mice treated with gossypol", "value": "There was no weight loss or death in"}, {"measurement": "weight loss", "setting": "[6]", "value": "There was no weight loss in mice"}]}, {"smiles": "CCN=Cc1c(O)c(O)c(C(C)C)c2cc(C)c(-c3c(C)cc4c(C(C)C)c(O)c(O)c(C=NCC)c4c3O)c(O)c12", "note": "[(−)-gossypol ethyl Schiff's base]", "values": [{"measurement": "inhibition of binding between Bak BH3 peptide and Bcl-XL", "setting": "Bcl-XL [7]", "value": "time-dependent inhibition"}]}, {"smiles": "CC(=O)O[C@@]12CO[C@@H]1C[C@H](O)[C@@]1(C)C(=O)[C@H](O)C3=C(C)[C@@H](OC(=O)[C@H](O)[C@@H](NC(=O)OC(C)(C)C)c4ccccc4)C[C@@](O)([C@@H](OC(=O)c4ccccc4)[C@H]21)C3(C)C", "note": "[Docetaxel, docetaxel, reference compound]", "values": [{"measurement": "tumor growth inhibition", "setting": "[5]; [12]", "value": "achieved about 70% tumor growth"}, {"measurement": "tumors grew back, time after treatment stopped", "setting": "[5]; [12]", "value": "back 2-3 weeks after treatment"}, {"measurement": "tumor growth in second round of treatment", "setting": "[5]; second round from day 45, tumors about 2,000 mm^3", "value": "continued to grow"}]}, {"smiles": "CSCC[C@H](NC(=O)[C@H](CCCNC(=N)N)NC(=O)[C@H](CCCNC(=N)N)NC(=O)[C@H](CC(C)C)NC(=O)[C@H](CCC(=O)O)NC(=O)[C@H](CCCNC(=N)N)NC(=O)CNC(=O)[C@H](Cc1ccc(O)cc1)NC(=O)[C@H](CCCNC(=N)N)NC(=O)[C@H](CCC(N)=O)NC(=O)[C@H](C)NC(=O)[C@H](C)NC(=O)[C@H](Cc1c[nH]c2ccccc12)NC(=O)[C@H](CC(C)C)NC(=O)[C@H](CC(N)=O)NC(=O)c1ccc2c(c1)C1(OC2=O)c2ccc(O)cc2Oc2cc(O)ccc21)C(=O)N[C@@H](CO)C(=O)N[C@@H](CC(=O)O)C(=O)N[C@@H](CCC(=O)O)C(=O)N[C@@H](Cc1ccccc1)C(=O)N[C@H](C(=O)N[C@@H](CC(=O)O)C(=O)N[C@@H](CO)C(=O)N[C@@H](Cc1ccccc1)C(=O)N[C@@H](CCCCN)C(=O)N[C@@H](CCCCN)C(=O)O)C(C)C", "note": "[Bad 25-mer BH3 peptide, reference compound]", "values": [{"measurement": "Kd", "setting": "Bcl-2; FIG. 26", "value": 0.0069, "unit": "µM"}]}, {"smiles": "CC1=C(C2=C(C)C(=O)c3c(c(C=O)c(O)c(O)c3C(C)C)C2=O)C(=O)c2c(C=O)c(O)c(O)c(C(C)C)c2C1=O", "note": "(racemic) [gossypolone]", "values": [{"measurement": "inhibition of binding between Bak BH3 peptide and Bcl-XL", "setting": "Bcl-XL [7]", "value": "competitive inhibition of Bak BH3 peptide binding to Bcl-XL protein"}]}, {"smiles": "Cc1cc2c(C(C)C)c(O)c(O)c(C=O)c2c(O)c1-c1c(C)cc2c(C(C)C)c(O)c(O)c(C=O)c2c1O", "note": "[(+)-gossypol]", "values": [{"measurement": "IC50", "setting": "[8]", "value": 22.9, "unit": "µM"}, {"measurement": "binding to Bcl-XL by NMR", "setting": "Bcl-XL [9]", "value": "bind to the BH3 binding groove in Bcl-XL"}, {"measurement": "inhibition of binding between Bad BH3 peptide and Bcl-XL", "setting": "Bcl-XL [10]", "value": "directly inhibit binding between Bad BH3 peptide and Bcl-XL"}, {"measurement": "inhibition of binding between Bid BH3 peptide and Bcl-2", "setting": "Bcl-2; FIG. 4", "value": "directly inhibit binding between Bid BH3 peptide and Bcl-2"}, {"measurement": "T1/2 of elimination relative to (−)-gossypol", "setting": "[11]", "value": 29, "unit": "times"}]}]}
